# Tested on: androgen receptor (AR)
# Assay: PSA (6.1 kb)-luciferase reporter assay in LNCaP cells induced with R1881
# Assay type: cell-based
# Settings: Homo sapiens; LNCaP cells transiently transfected with PSA (6.1 kb)-luciferase; 1 h pre-treatment with compound, then R1881 (1 nM) for 24 h; value with standard error
# Protocol: LNCaP cells were transiently transfected with PSA (6.1 kb)-luciferase for 24 h prior to pre-treatment with compounds of the invention (e.g., compounds 1a, 9, 13) ranging in concentration from 62.5 ng/ml to 1.5 ug/ml for 1 hour before the addition of vehicle, or synthetic androgen, R1881 (1 nM) to induce luciferase production. After 24 h of incubation with R1881, the cells were harvested, and relative luciferase activities were determined. To determine the IC50, treatments were normalized to the predicted maximal activity induction (in the absence of test compounds, vehicle only).
row,Compound,IC50 [µM]
1,"CC(C)(c1ccc(OCC(O)CCl)cc1)c1ccc(OCC(O)CN2CCOCC2)cc1 (stereo not drawn) [Compound 13, 1-chloro-3-(4-(2-(4-(2-hydroxy-3-morpholinopropoxy)phenyl)propan-2-yl)phenoxy)propan-2-ol]",12.8
2,"CC(C)(c1ccc(OC[C@H](O)CCl)cc1)c1ccc(OC[C@H](O)Cn2nnc(CO)c2I)cc1 [Compound 1a, (S)-1-chloro-3-(4-(2-(4-((R)-2-hydroxy-3-(4-(hydroxymethyl)-5-iodo-1H-1,2,3-triazol-1-yl)propoxy)phenyl)propan-2-yl)phenoxy)propan-2-ol]",3.23
3,"CC(C)(c1ccc(OCC(O)CCl)cc1)c1ccc(OCC(O)Cn2ccnc2)cc1 (stereo not drawn) [Compound 9, 1-chloro-3-(4-(2-(4-(2-hydroxy-3-(1H-imidazol-1-yl)propoxy)phenyl)propan-2-yl)phenoxy)propan-2-ol]",8.45

# Source: patent publication US11345670B2, “Heterocyclic compounds for cancer imaging and treatment and methods for their use” (The University of British Columbia, priority 2015, dated 2022)
